In US9796677B2, “Amide compound and pharmaceutical comprising same” (JAPAN SCIENCE AND TECHNOLOGY AGENCY, priority 2013, dated 2017):

Experiments:
O-acylisopeptide of Aβ = target: T1, O-acylisopeptide of Aβ (Homo sapiens, UniProt P05067); experiment: Aβ aggregation inhibition test (thioflavine T fluorescence); format: biochemical; details: final sample concentration 30 μM, Aβ O-acylisopeptide 10 μM, pH 7.4, 37° C., 1% DMSO; DMSO control defined as 100
T1 construct: containing O-acylisopeptide of Aβ (10 μM)
Experimental: A test sample solution (solution in DMSO) was added into a 0.1 M phosphate buffer solution (pH 7.4, 50 μL) containing O-acylisopeptide of Aβ (10 μM) (final sample concentration: 30 μM, 1% DMSO), and the mixture was incubated at 37° C. for an arbitrary time. Then, an aliquot (10 μL) of the reaction solution was added to a mixed solution of a thioflavine T solution (50 μM thioflavine T, 10 μL) and a 50 mM glycine-NaOH buffer (pH 8.5, 396 μL) and immediately mixed therewith, and the fluorescence intensity of thioflavine T was measured. In the fluorescence intensity measurement, 440 nm was used as an excitation wavelength, and 480 nm was used as a fluorescent wavelength.

Aβ = details: background statement on the known pentapeptide; cited from earlier work
Sequence of Aβ (P05067 672-711 limits assumed): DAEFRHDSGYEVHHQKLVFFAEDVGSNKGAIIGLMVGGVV

T1 sequence (P05067 672-713 limits assumed): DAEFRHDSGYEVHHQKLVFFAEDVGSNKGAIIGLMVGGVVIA

Row | Compound | Aggregation inhibition ratio (lower value means stronger inhibitory activity) (O-acylisopeptide of Aβ) | Aβ aggregation inhibitory activity (Aβ)
1 | CC(C)CCNC(=O)c1cc(Cc2ccccc2)cc(Oc2ccccc2)n1 [Compound 1, 4-Benzyl-6-phenoxy-N-isoamylpicolinamide] | 61 | –
2 | CC(C)CCNC(=O)c1cc(Cc2ccc3ccccc3c2)cc(Oc2ccccc2)n1 [Compound 2, 4-(Naphthalen-2-yl)methyl-6-phenoxy-N-isoamylpicolinamide] | 52 | –
3 | CC(C)CCCNC(=O)c1cc(Cc2ccccc2)cc(Oc2ccccc2)n1 [Compound 3, 4-Benzyl-6-phenoxy-N-(4-methylpentyl)picolinamide] | 58 | –
4 | CC(C)CCNC(=O)c1cc(Cc2ccccc2)cc(OC2CCCCC2)n1 [Compound 4, 4-Benzyl-6-cyclohexyloxy-N-isoamylpicolinamide] | 60 | –
5 | CC(C)CCNC(=O)c1cc(Cc2ccccc2)cc(OCc2ccccc2)n1 [Compound 5, 6-Benzyloxy-4-benzyl-N-isoamylpicolinamide] | 75 | –
6 | CC(C)CCOc1cc(Cc2ccccc2)cc(C(=O)NCCc2ccccc2)n1 [Compound 6, 4-Benzyl-6-(3-methylbutoxy)-N-phenylethylpicolinamide] | 60 | –
7 | O=C(NC1C2CC3CC(C2)CC1C3)c1nc(Cc2ccccc2)cc(Oc2ccccc2)n1 (centres unmarked) [Compound 12, N-(Adamantan-2-yl)-4-benzyl-6-phenoxypyrimidine-2-carboxamide] | 40 | –
8 | L-[Lys-Leu-Val-Phe-Phe] (KLVFF) [(known), used as control] | – | very weak
